“Also recorded” adds a separate entry of the source. Where two headings read alike, the source gives them in different places.
Columns and labels:
[1] = molecular target: T1, P2X receptor (vas deferens) (Cavia porcellus, UniProt A0A286XVA9); assay: Contraction of guinea pig isolated vas deferens
T1 sequence (A0A286XVA9 1-399): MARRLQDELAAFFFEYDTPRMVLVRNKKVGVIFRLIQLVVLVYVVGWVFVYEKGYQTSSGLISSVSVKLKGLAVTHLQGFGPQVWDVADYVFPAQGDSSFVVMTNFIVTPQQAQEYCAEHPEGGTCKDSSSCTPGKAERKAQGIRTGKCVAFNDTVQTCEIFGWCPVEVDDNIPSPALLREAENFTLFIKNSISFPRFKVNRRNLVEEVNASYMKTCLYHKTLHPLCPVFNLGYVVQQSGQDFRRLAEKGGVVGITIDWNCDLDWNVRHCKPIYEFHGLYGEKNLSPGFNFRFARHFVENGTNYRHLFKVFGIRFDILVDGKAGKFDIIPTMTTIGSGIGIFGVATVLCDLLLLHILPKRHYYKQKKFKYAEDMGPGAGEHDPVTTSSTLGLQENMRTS

P2X and P2Y receptors [2] = conditions: Satchell and Maguire; cited from earlier work
[3] = molecular target: T2, P2Y receptor (turkey erythrocyte membranes) (Meleagris gallopavo, UniProt P49652); assay: Stimulation of phospholipase C (inositol phosphate formation) in turkey erythrocyte membranes; type: biochemical
T2 construct: from tissue; host or cells: washed turkey erythrocytes, ghosts prepared by hypotonic lysis
Outline: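 Erythrocytes were labelled 18-24 h at 37 °C with [3H]myoinositol, and ghosts were made by hypotonic lysis. Ghosts (≈175 μg protein) were incubated 5 min at 30 °C in Hepes buffer pH 7.0 with 1 μM GTPγS and nucleotide analogs. Total [3H]inositol phosphates were purified by anion exchange; K0.5 averaged from 3-8 dose-response curves.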

P2X and P2Y receptors [4] = assay: Overall activity in the seven P2X and P2Y preparations
[5] = molecular target: T3, P2X receptor (urinary bladder) (Cavia porcellus, UniProt A0A286XVA9); assay: Contraction of guinea pig isolated urinary bladder detrussor muscle; conditions: guinea pig urinary bladder
T3 construct: guinea pig isolated urinary bladder detrussor muscle; from tissue; host or cells: guinea pig isolated urinary bladder detrusor muscle
Procedure: In FIG. 14, the x-axis is also marked in units of the negative log of the molar concentration of applied putative P2Y receptor agonists and the y-axis is marked in units of the percentage relaxation of the 1 μM noradrenalin-induced contraction of rabbit aorta endothelium. In FIGS. 15-16, the x-axis is marked in units of the negative log of the molar concentration of applied putative p^2X receptor agonists and the y-axis is marked in units of the percentage contraction relative to a standard dose of KCl (i.e., 60 mM), as assessed in guinea pig isolated urinary bladder detrussor muscle (FIG. 15) and guinea pig isolated vas deferens (FIG. 16).

[6] = tested on: P2Y receptor (aorta endothelium); assay: Relaxation of noradrenalin-contracted rabbit aorta; conditions: rabbit aorta; log molar units
[7] = molecular target: T4, P2X receptor (saphenous artery) (Oryctolagus cuniculus, UniProt G1U3D6); assay: Contraction of rabbit saphenous artery; conditions: for activity/potency in words, saphenous artery: rabbit saphenous artery
T4 construct: and rabbit saphenous artery; from tissue; host or cells: rabbit saphenous artery
T4 sequence (G1U3D6 1-399): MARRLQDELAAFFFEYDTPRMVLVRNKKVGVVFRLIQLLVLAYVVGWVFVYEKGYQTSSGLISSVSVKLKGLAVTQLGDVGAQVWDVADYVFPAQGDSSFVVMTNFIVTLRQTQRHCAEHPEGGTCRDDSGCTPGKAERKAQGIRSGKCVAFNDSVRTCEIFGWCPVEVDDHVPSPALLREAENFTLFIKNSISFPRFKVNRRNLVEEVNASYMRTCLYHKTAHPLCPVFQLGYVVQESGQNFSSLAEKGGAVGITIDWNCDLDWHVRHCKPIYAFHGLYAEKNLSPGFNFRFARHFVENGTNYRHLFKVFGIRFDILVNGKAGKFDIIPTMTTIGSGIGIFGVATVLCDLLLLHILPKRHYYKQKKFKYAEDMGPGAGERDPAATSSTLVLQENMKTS
Outline: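 Contraction of isolated rabbit saphenous artery, standard organ-bath methods; responses at 10 μM expressed as percentage of contraction produced by 1 μM α,MeATP. Highest analogue concentrations tested were 3-30 […].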

[8] = molecular target: P2Y receptor (mesenteric artery); assay: Relaxation of rabbit mesenteric artery; conditions: log molar units
[9] = molecular target: T1, P2X receptor (vas deferens); conditions: guinea pig vas deferens; log molar units; footnote e: literature data; cited from earlier work
[10] = molecular target: T5, P2Y receptor (taenia coli) (Cavia porcellus, UniProt P59902); assay: Relaxation of carbachol-contracted guinea pig taenia coli
T5 construct: Relaxant responses mediated via P2Y receptors were examined in guinea pig taenia coli; from tissue; host or cells: guinea pig taenia coli (carbachol-contracted)
Outline: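 Guinea pig taenia coli precontracted with 50 nM carbachol; relaxation to applied P2Y agonists expressed as percentage relaxation against negative log molar agonist concentration.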

P2X receptors = assay: Overall activity in P2X receptor systems
P2Y receptors [11] = assay: Overall activity in P2Y receptor systems
Procedure: Phospholipase C activity: Stimulation of inositol phosphate formation by compounds of the present invention was measured in turkey erythrocyte membranes as described by Harden et al., supra and Boyer et al., supra. The K0.5 values were averaged from 3-8 independently determined dose-response curves for each compound. Briefly, one ml of washed turkey erythrocytes was incubated in inositol-free medium (DMEM; Gibco) with 0.5-1 mCi of 2-[^3 H]myoinositol (20 Ci/mmol; American Radiolabeled Chemicals Inc., St. Louis, Mo.)for 18-24 h in a humidified atmosphere of 95% air 5% CO2 at 37° C. Erythrocyte ghosts were prepared by rapid lysis in hypotonic buffer (5 mM sodium phosphate, pH 7.4, 5 mM MgCl2, 1 mM EGTA) as described by Boyer et al., supra. Phospholipase C activity was measured in 25 μl of [^3 H]inositol-labeled ghosts (≈175 μg of protein, 200-500,000 cpm/assay) in a medium containing 424 μM CaC12, 0.91 mM MgSO4, 2 mM EGTA, 115 mM KCl, 5 mM KH2 PO4, and 10 mM Hepes, pH 7.0. Assay (100 μl or 200 μl final volume) contained 1 μM GTPγS and the indicated concentrations of nucleotide analogs. Ghosts were incubated at 30° C. for 5 min, and total [^3 H]inositol phosphates were quantitated after purification by anion exchange chromatography according to Harden et al. (supra) and Boyer et al. (supra).
Muscular relaxation/contraction: Relaxant responses mediated via P2Y receptors were examined in guinea pig taenia coli, rabbit aorta, and rabbit mesenteric artery, as described by Hoyle et al. (Br. J. Pharmacol., 107, 367-374 (1992a)), Burnstock et al., (Br. J. Pharmacol., 90, 383-391 (1987a)), and Rubino et al., (Eur. J. Pharmacol., 212, 237-240 (1992)). Contractile responses mediated via P2X receptors were examined in the guinea pig urinary bladder and vas deferens, and rabbit saphenous artery, also using standard methods (see Hoyle et al., supra., 1992; Hoyle et al., Br. J. Pharmacol., 99, 617-621 (1990); and Burnstock et al., Br. J. Pharmacol., 90, 111-120 (1987b)).

[12] = molecular target: T5, P2Y receptor (taenia coli); conditions: cited from earlier work
P2Y receptors [13] = conditions: literature; cited from earlier work
nucleotidases = conditions: Zimmet et al.; Jacobson et al.; cited from earlier work
[14] = molecular target: T6, adenylyl cyclase linked P2Y receptor (C6 rat glioma cells) (Rattus norvegicus, UniProt Q9EPX4); assay: Inhibition of adenylyl cyclase in C6 rat glioma cells; type: cell-based
T6 construct: endogenous in cells; host or cells: C6 rat glioma cells
Procedure: This example illustrates the inhibition of adenylyl cyclase activity in C6 rat glioma cells, as a function of the presence of certain ATP analogs in the medium in which the C6 cells were cultured.
Cells were labelled by incubation for 2 hours in the presence of 1 to 2 mCi of tritiated adenine/ml in the medium. Cells were washed twice with HEPES (20 mM, pH 7.5)-buffered Eagle's medium and then preincubated for 10 minutes at 37° C. with fresh medium containing 200 μM 3-isobutyl-1-methylxanthine. Agonist incubations were initiated by the simultaneous addition of 10 μM isoproterenol and various concentrations of nucleotides. The reactions were stopped after 10 minutes of aspiration of the nucleotide-containing medium and addition of 1 ml of ice-cold 5% trichloroacetic acid.

P2U receptors = conditions: literature; cited from earlier work
[15] = turkey erythrocyte membranes, mean ± S.E.M. for at least 2 determinations, read-out: phosphatidyl inositol metabolism (K0.5, nM) erythrocyte
[16] = listed as 3'-Benzylamino-3'-deoxy-ATP
[17] = listed as 3'-benzylamino-3'-deoxy-ATP
[18] = listed as 3'-benzylamino-3'-deoxyATP
[19] = turkey erythrocyte membranes, read-out: K0.5

T2 sequence (P49652 whole entry): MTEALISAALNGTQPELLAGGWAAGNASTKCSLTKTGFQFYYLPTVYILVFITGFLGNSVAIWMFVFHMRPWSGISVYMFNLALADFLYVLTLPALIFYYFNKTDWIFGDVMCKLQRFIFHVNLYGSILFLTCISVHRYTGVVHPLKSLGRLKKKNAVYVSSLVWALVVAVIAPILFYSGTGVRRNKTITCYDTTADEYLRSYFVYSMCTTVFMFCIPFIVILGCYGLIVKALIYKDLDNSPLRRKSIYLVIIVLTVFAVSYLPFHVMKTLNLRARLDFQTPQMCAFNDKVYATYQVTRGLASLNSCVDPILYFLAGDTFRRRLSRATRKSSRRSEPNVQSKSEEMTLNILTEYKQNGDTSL
T5 sequence (P59902 whole entry): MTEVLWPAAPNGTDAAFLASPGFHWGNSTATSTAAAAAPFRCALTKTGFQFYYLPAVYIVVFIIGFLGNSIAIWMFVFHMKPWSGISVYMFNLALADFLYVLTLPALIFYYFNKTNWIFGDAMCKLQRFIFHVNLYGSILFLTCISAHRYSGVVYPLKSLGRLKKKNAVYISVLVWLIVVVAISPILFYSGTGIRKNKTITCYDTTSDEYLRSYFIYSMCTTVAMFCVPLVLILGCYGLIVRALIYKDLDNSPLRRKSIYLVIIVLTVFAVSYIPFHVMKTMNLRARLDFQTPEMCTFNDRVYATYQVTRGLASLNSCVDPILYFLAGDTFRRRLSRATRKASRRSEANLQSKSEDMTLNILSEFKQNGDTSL
T6 sequence (Q9EPX4 whole entry): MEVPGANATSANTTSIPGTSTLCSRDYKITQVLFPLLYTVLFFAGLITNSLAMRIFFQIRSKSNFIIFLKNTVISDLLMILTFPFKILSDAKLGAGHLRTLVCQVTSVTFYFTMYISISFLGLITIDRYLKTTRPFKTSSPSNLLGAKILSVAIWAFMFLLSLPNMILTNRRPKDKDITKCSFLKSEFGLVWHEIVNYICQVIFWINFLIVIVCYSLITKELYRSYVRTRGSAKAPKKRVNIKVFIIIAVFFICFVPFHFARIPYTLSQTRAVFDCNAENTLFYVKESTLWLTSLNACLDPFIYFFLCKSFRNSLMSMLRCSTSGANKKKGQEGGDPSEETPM

In the case of `Nc1ncnc2c1nc(Br)n2[C@@H]1O[C@H](COP(=O)(O)OP(=O)(O)OP(=O)(O)O)[C@@H](O)[C@H]1O` [8-Br-ATP, 8-Bromoadenosine 5'-triphosphate], the “activity/potency in words, vas deferens” value [1] is given as “inactive in the vas deferens”, the “activity at P2 receptors, in words” value (P2X and P2Y receptors [2]) is given as “somewhat active at P2 receptors” and the EC50 [3, 15] is given as 47400 nM. The “overall activity in words, all preparations” value (P2X and P2Y receptors [4]) was “relatively ineffective at the receptors tested in this study” and the “activity/potency in words, bladder” value [5] was “limited activity in the urinary bladder”.

For `Nc1ncnc2c1ncn2[C@@H]1O[C@H](COP(=O)(O)OP(=O)(O)OP(=O)(O)O)[C@@H](O)[C@H]1O` [ATP, adenosine-5'-triphosphate, reference compound], the “relaxation pD2, aorta” value [6] was 4.5, the EC50 ([3]; K0.5, turkey erythrocyte membranes, read from graph) was 10000 nM and the EC50 [3, 15] was 2800 ± 700 nM. The EC50 [7] was 1780 µM, the activation at 10 µM ([7]; read-out: response at 10 μM relative to the contraction produced by 1 μM α,MeATP, saph. artery) was 5% and the “relaxation pD2, mes. artery” value [8] was 6.0. For the same compound, the “contraction pD2, vas” value [9] was 3.5, the EC50 [10] was 0.631 µM and the “relaxation pD2, taenia coli” value ([10]; guinea pig taenia coli, log molar units) was 6.2 ± 0.08.

With `Nc1ncnc2c1ncn2[C@@H]1O[C@H](COP(=O)(O)OP(=O)(O)OP(=O)(O)O)[C@@H](NCc2ccccc2)[C@H]1O` [3'-Benzylamino-3'-deoxyATP, 3'-N-Benzylamino-3'-deoxyadenosine 5'-triphosphate] the “activity/potency in words, vas deferens” value [1] was “the most potent agonist at vas deferens P2X receptors”, the “activity/potency in words, vas deferens” value [1, 16] was “substantially more potent than ATP” and the “activity/potency in words, vas deferens” value [1, 17] was “potent agonists in the vas deferens and urinary bladder”. The “activity/potency in words, vas deferens” value [1, 18] was “high potency”, the EC50 [3, 15] was > 100000 nM and the “activity/potency in words, saphenous artery” value [7] was “inactive”. For the same compound, the “activity/potency in words, saphenous artery” value [7, 17] was “at best weak agonists in the saphenous artery”, the “activity/potency in words, saphenous artery” value [7, 18] was “not rabbit saphenous artery P2X receptors” and the “overall activity in words, P2X systems” value (P2X receptors) was “specificity for P2X receptors”. The “overall activity in words, all preparations” value (P2X and P2Y receptors [4]) was “active only in the vas deferens and urinary bladder”, the “overall activity in words, P2Y systems” value (P2Y receptors [11]) was “either inactive or only a weak agonist in P2Y -systems” and the “overall activity in words, P2Y systems” value (P2Y receptors [11]; listed as 3'-benzylamino-3'deoxyATP) was “inactive in the P2Y receptor systems”. The “activity/potency in words, bladder” value [5] was “highly potent at urinary bladder P2X receptors”, the “activity/potency in words, bladder” value [5, 16] was “substantially more potent than ATP” and the “activity/potency in words, bladder” value [5, 17] was “potent agonists in the vas deferens and urinary bladder”. The “activity/potency in words, bladder” value [5, 18] was “high potency”.

In the case of `CSc1nc(N)c2ncn([C@@H]3O[C@H](COP(=O)(O)OP(=O)(O)OP(=O)(O)O)[C@@H](O)[C@H]3O)c2n1` [2-MeS-ATP, 2-methylthio-ATP], the “relaxation pD2, aorta” value [6] is given as 6.8, the “pD2, taenia coli, as reported by Hoyle et al.” value ([12]; guinea pig taenia coli) is given as 8.0±0.15 and the EC50 [3, 15] is given as 8 ± 2 nM. The EC50 [3, 19] was 8 nM, the “P2Y receptor affinity/potency, in words” value (P2Y receptors [13]) was “high affinity for P2Y receptors; also recorded: One of the most potent known P2Y receptor agonists” and the “stability to nucleotidases, in words” value (nucleotidases) was “susceptible to ectonucleotidases”. For the same compound, the “selectivity for the adenylyl cyclase linked (C6 cell) receptor” value ([14]; versus phospholipase C linked turkey erythrocyte receptor) was 7.3 -fold, the “potency at P2U receptors, in words” value (P2U receptors) was “much less potent than ATP at P2U -receptors” and the “relaxation pD2, mes. artery” value [8] was 6.5. It also gave an EC50 [10] of 0.01 µM.

In the case of `Nc1nc(Cl)nc2c1ncn2[C@@H]1O[C@H](COP(=O)(O)OP(=O)(O)OP(=O)(O)O)[C@@H](O)[C@H]1O` [2-Cl-ATP, 2-chloro-ATP, reference compound], the “relaxation pD2, aorta” value [6] is given as 5.8, the “relaxation pD2, taenia coli” value ([12]; guinea pig taenia coli, log molar units, footnote e: literature data) is given as 7.2 and the EC50 [3, 15] is given as 72 ± 19 nM. For the same compound, the EC50 [3, 19] was 72 nM, the “selectivity for the adenylyl cyclase linked receptor, in words” value ([14]; versus phospholipase C linked receptor) was “not observed” and the “relaxation pD2, mes. artery” value [8] was 6.2.

In the case of `Nc1ncnc2c1ncn2[C@@H]1O[C@H](COP(O)(=S)OP(=O)(O)OP(=O)(O)O)[C@@H](O)[C@H]1O` (stereo partly drawn) [ATP-α-S (S-isomer), reference compound], the “fold more potent than ATP, taenia coli” value ([12]; relative to ATP, see Burnstock et al. 1984) is listed as “approximately 10 -fold”, the EC50 ([3]; phosphatidyl inositol metabolism (K0.5, nM) erythrocyte, turkey erythrocyte membranes, mean ± S.E.M. for at least 2 determinations) is listed as 8930 ± 4440 nM and the “fold less potent than ATP, turkey erythrocyte” value ([3]; relative to ATP) is listed as 2 -fold. The “relaxation pD2, mes. artery” value [8] was 6.6.

Reference: patent US5620676A, “Biologically active ATP analogs” (priority 1995, dated 1997)
